The experiment deals with T1, Glucocorticoid Receptor (GR) (Homo sapiens, UniProt P04150).
T1 construct: purchased Invitrogen P2893
T1 sequence (P04150 1-777): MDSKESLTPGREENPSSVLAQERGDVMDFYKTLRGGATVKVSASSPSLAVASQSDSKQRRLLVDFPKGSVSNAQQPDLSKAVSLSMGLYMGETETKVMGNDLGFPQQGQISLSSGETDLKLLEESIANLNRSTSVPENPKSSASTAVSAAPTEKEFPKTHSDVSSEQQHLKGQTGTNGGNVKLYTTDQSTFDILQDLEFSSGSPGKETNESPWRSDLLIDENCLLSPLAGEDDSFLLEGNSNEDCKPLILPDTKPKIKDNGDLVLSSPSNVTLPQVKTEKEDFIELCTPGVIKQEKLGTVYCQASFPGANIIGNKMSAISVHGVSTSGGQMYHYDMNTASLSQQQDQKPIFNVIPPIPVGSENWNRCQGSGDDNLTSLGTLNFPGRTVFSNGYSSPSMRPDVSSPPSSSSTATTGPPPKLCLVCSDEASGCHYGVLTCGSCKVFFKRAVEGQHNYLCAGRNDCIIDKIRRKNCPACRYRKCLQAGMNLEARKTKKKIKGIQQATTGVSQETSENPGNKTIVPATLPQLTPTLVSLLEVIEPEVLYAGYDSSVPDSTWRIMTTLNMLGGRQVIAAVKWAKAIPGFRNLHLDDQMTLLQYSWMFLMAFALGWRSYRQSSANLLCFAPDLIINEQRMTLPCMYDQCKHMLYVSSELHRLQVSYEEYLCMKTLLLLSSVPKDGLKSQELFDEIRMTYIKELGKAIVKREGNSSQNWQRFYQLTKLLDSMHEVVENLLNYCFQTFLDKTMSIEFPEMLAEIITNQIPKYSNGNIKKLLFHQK
Put plainly: GR Fluorescence Polarization Assay (PolarScreen Glucocorticoid Receptor Competitor Assay, Red). To be noted: IC50 class ranges, read-out: GR binding. The protocol: GR Fluorescence Polarization Assay
Fluorescence polarization assays were carried out using the PolarScreen™ Glucocorticoid Receptor Competitor Assay, Red from Invitrogen (P2893). The assay buffer was prepared according to the manufacturer's protocol and used to dilute the fluorescent glucocorticoid and GR. Compounds were prepared and serial diluted 1:4 in DMSO. Compound, fluorescent glucocorticoid and GR were added in a final volume of 20 μL and incubated overnight at 4° C. Fluorescent polarization was measured on the PerkinElmer Envision®.
For orientation: Polarisation of emitted light reports the rotation of a fluorescent probe.
As to `Cc1cc(C(=O)Nc2cccnc2C)ccc1[C@H]1SC[C@H](C)Nc2c1c(-c1ccncn1)nn2C` (single isomer, unassigned) [M.59, 4-(1,7-dimethyl-3-(pyrimidin-4-yl)-4,6,7,8-tetrahydro-1H-pyrazolo[3,4-e][1,4]thiazepin-4-yl)-3-methyl-N-(2-methylpyridin-3-yl)benzamide], the IC50 is 1000 to 10000 nM.

In the case of `Cn1nc(-c2ccccn2)c2c1NCCSC2c1ccc(-c2cncc(S(C)(=O)=O)c2)cc1Cl` (stereo not shown) [U.1, 4-(2-Chloro-4-(5-(methylsulfonyl)pyridin-3-yl)phenyl)-1-methyl-3-(pyridin-2-yl)-4,6,7,8-tetrahydro-1H-pyrazolo[3,4-e][1,4]thiazepine tris(trifluoroacetate)], the IC50 lay within 1000 to 10000 nM.

Turning to `COCCn1cc(-c2ccc(C3SCCNc4c3c(-c3ccccn3)nn4C)c(Cl)c2)cn1` (stereo not shown) [U.15], the IC50 is 1000 to 10000 nM.

In the case of `Cn1nc(-c2ccccn2)c2c1NCCSC2c1ccc(-c2cnn(CCC#N)c2)cc1Cl` (stereo not shown) [U.16], the IC50 was in the range of 100 to 1000 nM.

As to `Cn1nc(-c2ccccn2)c2c1NCCSC2c1ccc(-c2cnn(C3CCCCO3)c2)cc1Cl` (stereo not shown) [U.6], the IC50 lay in the range of 100 to 1000 nM.

In the case of `Cn1nc(-c2ccccn2)c2c1NCCSC2c1ccc(-c2cnc(N3CCOCC3)nc2)cc1Cl` (stereo not shown) [U.19], the IC50 lay within 1000 to 10000 nM.

With `CCn1nc(-c2ccccn2)c2c1N[C@@H](C)CS[C@H]2c1ccc(CCC(C)(C)N)cc1C` [Q.1], the IC50 was in the range of 100 to 1000 nM.

As for `Cc1ncccc1NC(=O)N1CCC(C2SCCNc3c2c(-c2ccccn2)nn3C)CC1` (stereo not shown), the IC50 is more than 10000 nM.

Turning to `Cn1nc(C(F)(F)F)c2c1NCCSC2c1ccc(Cl)cc1Cl` (stereo not shown) [D.91], the IC50 was 1000 to 10000 nM.

For `CCn1nc(-c2ccccn2)c2c1N[C@H](C)CS[C@@H]2c1ccc(CCC(C)(C)O)cc1C` (single isomer, unassigned) [M.38, 4-(4-(1-ethyl-7-methyl-3-(pyridin-2-yl)-4,6,7,8-tetrahydro-1H-pyrazolo[3,4-e][1,4]thiazepin-4-yl)-3-methylphenyl)-2-methylbutan-2-ol], the IC50 fell in the range of 100 to 1000 nM.

Turning to `CCn1nc(-c2ccccn2)c2c1N[C@@H](C)CS[C@@H]2c1ccc(C#CCN(C)C)cc1C` (single isomer, unassigned) [M.64, 3-(4-(1-ethyl-7-methyl-3-(pyridin-2-yl)-4,6,7,8-tetrahydro-1H-pyrazolo[3,4-e][1,4]thiazepin-4-yl)-3-methylphenyl)-N,N-dimethylprop-2-yn-1-amine], the IC50 lay in the range of 1000 to 10000 nM.

`Cc1cc(C#CCCO)ccc1[C@H]1SC[C@@H](C)Nc2c1c(-c1ccccn1)nn2C` (single isomer, unassigned) [M.56, 4-(4-(1,7-dimethyl-3-(pyridin-2-yl)-4,6,7,8-tetrahydro-1H-pyrazolo[3,4-e][1,4]thiazepin-4-yl)-3-methylphenyl)but-3-yn-1-ol]: the IC50 fell in the range of 100 to 1000 nM.

As to `Cn1nc(-c2ccccn2)c2c1NCCSC2c1ccc(C(C)(C)O)cc1Cl` (stereo not shown), the IC50 fell in the range of 1000 to 10000 nM.

Consider `Cn1nc(-c2ccccn2)c2c1NCCSC2c1ccc(-c2cnn(CCC(N)=O)c2)cc1Cl` (stereo not shown) [U.18], for which the IC50 was 100 to 1000 nM.

With `CCn1nc(-c2ccccn2)c2c1NCCSC2c1ccc(C(=O)Nc2onc(C)c2C#N)cc1C` (stereo not shown) [S.7], the IC50 lay in the range of 100 to 1000 nM.

In the case of `Cn1nc(-c2ccccn2)c2c1NCCSC2c1ccc(-c2cnn(CC(N)=O)c2)cc1Cl` (stereo not shown) [U.17], the IC50 was 100 to 1000 nM.

As to `COc1ccc(C2SCCNc3c2c(C)nn3C)cc1` (stereo not shown) [D.97], the IC50 is 1000 to 10000 nM.

In the case of `CCn1nc(-c2ccccn2)c2c1N[C@@H](C)CS[C@@H]2c1ccc(C#CC(C)(C)O)cc1C` (single isomer, unassigned) [M.29, 4-(4-(1-ethyl-7-methyl-3-(pyridin-2-yl)-4,6,7,8-tetrahydro-1H-pyrazolo[3,4-e][1,4]thiazepin-4-yl)-3-methylphenyl)-2-methylbut-3-yn-2-ol], the IC50 was in the range of 1000 to 10000 nM.

For the compound `Cn1nc(-c2ccc(C(C)(C)C)cc2)c2c1NCCSC2c1ccc(Cl)cc1Cl` (stereo not shown) [D.88], the IC50 is 1000 to 10000 nM.

Take `Cn1nc(-c2ccc(C(=O)O)cn2)c2c1NCCSC2c1ccc(Cl)cc1Cl` (stereo not shown): the IC50 was in the range of 1000 to 10000 nM.

For `Cn1nc(-c2ccc(OC(F)(F)F)cc2)c2c1NCCSC2c1ccc(Cl)cc1Cl` (stereo not shown) [D.95], the IC50 is 1000 to 10000 nM.

For `Cc1nn(C)c2c1C(c1cccnc1)SCCN2` (stereo not shown) [D.99], the IC50 is more than 10000 nM.

As to `COC(=O)c1ccc(C2SCCNc3c2c(-c2ccccn2)nn3C)cc1` (stereo not shown) [E.2, methyl 4-[1-methyl-3-(2-pyridyl)-4,6,7,8-tetrahydropyrazolo[3,4-e][1,4]thiazepin-4-yl]benzoate], the IC50 lay within 1000 to 10000 nM.

As for `Cc1cc(CCC(C)(C)O)ccc1[C@H]1SC[C@@H](C)Nc2c1c(-c1ccccn1)nn2C` (single isomer, unassigned) [M.43, 4-(4-(1,7-dimethyl-3-(pyridin-2-yl)-4,6,7,8-tetrahydro-1H-pyrazolo[3,4-e][1,4]thiazepin-4-yl)-3-methylphenyl)-2-methylbutan-2-ol], the IC50 lay in the range of 1000 to 10000 nM.

Regarding `Cc1cc(Br)ccc1[C@H]1SC[C@@H](C)Nc2c1c(-c1nnco1)nn2C` [M.63, 2-(4-(4-bromo-2-methylphenyl)-1,7-dimethyl-4,6,7,8-tetrahydro-1H-pyrazolo[3,4-e][1,4]thiazepin-3-yl)-1,3,4-oxadiazole], the IC50 fell in the range of 100 to 1000 nM.

For `Cc1cc(CCCO)ccc1[C@H]1SC[C@@H](C)Nc2c1c(-c1ccccn1)nn2C` (single isomer, unassigned) [M.50, 3-(4-(1,7-dimethyl-3-(pyridin-2-yl)-4,6,7,8-tetrahydro-1H-pyrazolo[3,4-e][1,4]thiazepin-4-yl)-3-methylphenyl)propan-1-ol], the IC50 was 1000 to 10000 nM.

In the case of `Cc1cc(C(=O)Nc2cccnc2C)ccc1[C@H]1SC[C@@H](C)Nc2c1c(-c1ccncn1)nn2C` (single isomer, unassigned) [M.60, 4-(1,7-dimethyl-3-(pyrimidin-4-yl)-4,6,7,8-tetrahydro-1H-pyrazolo[3,4-e][1,4]thiazepin-4-yl)-3-methyl-N-(2-methylpyridin-3-yl)benzamide], the IC50 was in the range of 1000 to 10000 nM.

In the case of `CCn1nc(-c2ccccn2)c2c1N[C@H](C)CS[C@@H]2c1ccc(C#CCO)cc1C` (single isomer, unassigned) [M.26, 3-(4-(1-ethyl-7-methyl-3-(pyridin-2-yl)-4,6,7,8-tetrahydro-1H-pyrazolo[3,4-e][1,4]thiazepin-4-yl)-3-methylphenyl)prop-2-yn-1-ol], the IC50 was 1000 to 10000 nM.

`Cc1ccc(Oc2ccc(C3SC(C)(C)CNc4c3c(C)nn4C)cc2)cc1` (stereo not shown) [D.78]: the IC50 fell in the range of 100 to 1000 nM.

As for `Cc1ccc(-c2nn(C)c3c2C(c2ccc(Cl)cc2Cl)SCCN3)cc1` (stereo not shown) [D.87], the IC50 fell in the range of 100 to 1000 nM.

As to `Cc1cc(C#N)ccc1C1SCCNc2c1c(-c1ccccn1)nn2C` (single isomer, unassigned) [M.21, 3-methyl-4-(1-methyl-3-(pyridin-2-yl)-4,6,7,8-tetrahydro-1H-pyrazolo[3,4-e][1,4]thiazepin-4-yl)benzonitrile], the IC50 was less than 100 nM.

On to `Cn1nc(-c2ccccn2)c2c1NCCSC2c1ccc(-c2ccc(S(C)(=O)=O)nc2)cc1Cl` (stereo not shown) [U.13], for which the IC50 lay in the range of 100 to 1000 nM.

As to `Cc1cc(C#CCCO)ccc1[C@H]1SC[C@H](C)Nc2c1c(-c1ccccn1)nn2C` (single isomer, unassigned) [M.53, 4-(4-(1,7-dimethyl-3-(pyridin-2-yl)-4,6,7,8-tetrahydro-1H-pyrazolo[3,4-e][1,4]thiazepin-4-yl)-3-methylphenyl)but-3-yn-1-ol], the IC50 was 100 to 1000 nM.

As to `Cn1nc(-c2ccccn2)c2c1NCCSC2c1ccc(-c2cncc(C#N)c2)cc1Cl` (stereo not shown) [U.4], the IC50 fell in the range of 100 to 1000 nM.

Source of the values: patent publication US9150592B2, “Heterocyclic nuclear hormone receptor modulators” (AbbVie Inc., priority 2012, dated 2015).
